Common to all, as to format: cell-based, human
Data set [1] has as its system HS-ORS. The data set can be described thus: mRNA quantification of ISGs in HS-ORS treated with drugs targeting the IFN pathway. Conditions: compared to ORS treated with DMSO. The protocol:
FIG. 2: Outer root sheath (ORS) cells from two patients were treated with two drugs (A. Ruxolitinib B. H151) targeting the interferon (IFN) pathway. mRNA levels of MX1, IP10, IFI27 and OAS1 in ORS. HS-ORS (n=2) were treated with two drugs during 24 hours before performing mRNA quantification.
ORS cells were lysed with RLT Plus Buffer (Qiagen). The RNA was extracted using the RNeasy Plus Mini Kit (Qiagen) according to the manufacturer's protocol then converted into cDNA using the QuantiTect Reverse Transcription Kit (Qiagen) for IFNβ detection and the High-Capacity cDNA Reverse Transcription Kit (Applied Biosystems, Thermo Fisher Scientific) for the expression of other genes.
For real-time PCR analysis of the cDNA samples thus obtained, we prepared custom-made primer sets using the Brilliant II SYBR green QPCR master mix (Agilent Technologies) or Quantitect SYBR Green PCR Kit (Qiagen) according to the manufacturers' protocols. Real-time PCR was performed on a MX3000P device (Agilent). The GAPDH or OAZ1 mRNA level was used for normalization. The relative expression (ΔCt) of mRNAs of each gene was computed using GAPDH or OAZ-1 expression as the reference.
We used two drugs targeting IFN pathway. HS-ORS (n=2) were treated with drugs during 24 hours before performing mRNA quantification. Four ISGs: MX1, OAS1, IFI27 and IP10 were analyzed.

The subject of data set [2] is HS-ORS cell populations. The data set can be described thus: DNA fiber spreading analysis of fork progression after siSTING transfection. Conditions: both HS-ORS cell populations (n=2); siSTING for 2 days before DNA fiber spreading. The source says:
(§1) FIG. 1: IFI16-STING pathway induces interferon (IFN) production in outer root sheath (ORS) cells from patients with hidradenitis suppurativa (HS). (A) Relative mRNA levels of IFN-β and IP10 in HS-ORS and HD-ORS cells. **P<0.01; ns, nonsignificant; Mann-Whitney rank-sum test. (B) Nonparametric Spearman correlation analysis of the expression of IFN-β genes and percentage of cells in phase S in HS-ORS cell populations. (C) Levels of IFN-β mRNA in HS-ORS (n=10) and HD-ORS (n=4) cell populations transfected with siSTING for 2 days before IFN-β mRNA quantification. (D) IFN-β mRNA levels in HS-ORS cell populations (n=3) transfected with siRNA-cGAS or siRNA-IFI16 for 2 days before IFN-β mRNA quantification. (E) DNA fiber spreading analysis of fork progression in HS-ORS cell populations (n=2) transfected with siSTING for 2 days before DNA fiber spreading. ****P<0.0001, Mann-Whitney rank-sum test. […] Quantification of phospho-IRF3 signal intensity in HS-ORS (n=7) and HD (n=5). […]
DNA fiber spreading was performed as described by Jackson and Pombo (16). […] The DNA fiber images thus acquired were analyzed using MetaMorph Microscopy Automation and Image Analysis Software (Molecular Devices, San Jose, Calif.) and the results were evaluated statistically by applying the two-sided Mann-Whitney rank-sum test with GraphPad Prism software (GraphPad, La Jolla, Calif.).

Data set [3] has as its system HS-ORS. As to the kind of experiment: Western blot analysis (phospho-IRF3, cGAS protein) after siRNA transfection of HS-ORS. To be noted: compared to scramble siRNA. From the text:
(§2) FIG. 1: IFI16-STING pathway induces interferon (IFN) production in outer root sheath (ORS) cells from patients with hidradenitis suppurativa (HS). (A) Relative mRNA levels of IFN-β and IP10 in HS-ORS and HD-ORS cells. **P<0.01; ns, nonsignificant; Mann-Whitney rank-sum test. (B) Nonparametric Spearman correlation analysis of the expression of IFN-β genes and percentage of cells in phase S in HS-ORS cell populations. (C) Levels of IFN-β mRNA in HS-ORS (n=10) and HD-ORS (n=4) cell populations transfected with siSTING for 2 days before IFN-β mRNA quantification. (D) IFN-β mRNA levels in HS-ORS cell populations (n=3) transfected with siRNA-cGAS or siRNA-IFI16 for 2 days before IFN-β mRNA quantification. (E) DNA fiber spreading analysis of fork progression in HS-ORS cell populations (n=2) transfected with siSTING for 2 days before DNA fiber spreading. ****P<0.0001, Mann-Whitney rank-sum test. (F) Western blot analysis of the levels of phospho-IRF3 in ORS transfected with siSTING or siCtrl. Quantification of phospho-IRF3 signal intensity in HS-ORS (n=7) and HD (n=5).
(§3) The following siRNAs were used: siSTING (CUGCAUCCAUCCAUCCCGUdTdT; SEQ ID NO:1, Sigma #Hs01_00031038, Sigma, St Louis, […].), siIFI16 (L-020004-00-0005, ON-TARGETplus Human IFI16 siRNA SMARTpool, Horizon Discovery, Waterbeach, UK), and sicGAS (L-015607-02-0005, ON-TARGETplus Human MB21D1 siRNA SMARTpool, Horizon Discovery). […]
In general terms: A western blot detects proteins with antibodies after separation by electrophoresis.

In data set [4] the test system is HD-ORS cells. The data set can be described thus: IFN-β and ISG mRNA quantification after siRNA transfection of HD-ORS cells. Conditions: compared to scramble siRNA.
Source text: as §1
(§4) ORS cells were lysed with RLT Plus Buffer (Qiagen). The RNA was extracted using the RNeasy Plus Mini Kit (Qiagen) according to the manufacturer's protocol then converted into cDNA using the QuantiTect Reverse Transcription Kit (Qiagen) for IFNβ detection and the High-Capacity cDNA Reverse Transcription Kit (Applied Biosystems, Thermo Fisher Scientific) for the expression of other genes. […]

Data set [5] relates to HD-ORS. The data set can be described thus: Western blot analysis of phospho-IRF3 after siRNA transfection of HD-ORS. Conditions: compared to scramble siRNA.
Source text: as §2, §3

The subject of data set [6] is HS-ORS cells. As to the kind of experiment: IFN-β and ISG mRNA quantification after siRNA transfection of HS-ORS cells. Conditions: compared to scramble siRNA.
Source text: as §1, §4

Setting [7] is: first patient, ORS treated 24 hours.

As to `CCc1ccc(NC(=O)Nc2c[nH]c3ccccc23)cc1` [H151, N-(4-Ethylphenyl)-N′-1H-indol-3-yl-urea], in data set [1] (HS-ORS (n=2), 24 hours), the “levels of IFI27 transcripts” value was “reduced levels”, the “levels of IP10 transcripts” value is given as “reduced levels”, the “levels of MX1 transcripts” value is reported as “reduced levels” and the “levels of OAS1 transcripts” value is “reduced levels”. Also, in data set [1] (setting [7]), the “levels of IFI27 transcripts” value is “reduced levels”, the “levels of IP10 transcripts” value was “reduced levels”, the “levels of MX1 transcripts” value is given as “reduced levels” and the “levels of OAS1 transcripts” value is “reduced levels”.

“siSTING: siRNA CUGCAUCCAUCCAUCCCGUdTdT; SEQ ID NO:1, Sigma #Hs01_00031038 (sense CUGCAUCCAUCCAUCCCGUTT; dTdT overhang, further chemistry not given here)”: the IdU track length result in data set [2] is “decreased to the length observed in HD-ORS cells”. For the same compound, the “IRF3 phosphorylation at Ser396 (pIRF3)” value in data set [3] is recorded as “inhibition”; in data set [5] it was “no modification”. Besides, the IFN-β transcript levels entry in data set [4] (HD-ORS cells, siRNA 10 μM, 2 days) is “not associated with a difference”; in data set [6] (HS-ORS cells, siRNA 10 μM, 2 days), “lower”. The “ISGs transcripts (OAS1 and IP-10)” value is on record as “no change” in data set [4] (ORS from HD) and “decrease” in data set [6] (ORS from HS patients).
